Experimental data reported in patent US7342000B2, “Semisynthetic macrolide antibiotics of the azalide series” (GlaxoSmithKline istrazivacki center Zagreb, priority 2002, dated 2008).

Assays:
Experiment in all cases: MIC by broth dilution (NCCLS M7-A2)
Format in all cases: cell-based
Conditions in all cases: 90% growth inhibition
E. coli ATCC 25922 = system: E. coli ATCC 25922
Source text: (§1) MIC levels for all compound were determinated on panel of susceptible, and resistant Gram positive bacterial strains (S. aureus, S. pneumoniae and S. pyogenes) and on Gram negative strains (E. coli, H. influenzae, […], M. catarrhalis).

E. faecalis ATCC 29212 = system: E. faecalis ATCC 29212
Source text: as §1

H. influenzae ATCC 49247 = system: H. influenzae ATCC 49247
Source text: as §1

[1] = system: M. catarrhalis ATCC 23246
Source text: as §1

S. aureus ATCC 13709 = system: S. aureus ATCC 13709
Source text: as §1

S. pneumoniae = system: S. pneumoniae
Source text: as §1

S. pyogenes M = system: S. pyogenes M
Source text: as §1

S. pyogenes iMLS = system: S. pyogenes iMLS
Source text: as §1

S. pyogenes = system: S. pyogenes
Source text: as §1

| Compound | MIK (E. coli ATCC 25922) [µg/mL] | MIK (E. faecalis ATCC 29212) [µg/mL] | MIK (H. influenzae ATCC 49247) [µg/mL] | MIK [1] [µg/mL] | MIK (S. aureus ATCC 13709) [µg/mL] | MIK (S. pneumoniae) | MIK (S. pyogenes M) [µg/mL] | MIK (S. pyogenes iMLS) [µg/mL] | MIK (S. pyogenes) |
| --- | --- | --- | --- | --- | --- | --- | --- | --- | --- |
| 9-Deoxo-9-dihydro-9a-N-[N′-(β-cyanoethyl)-N′-(2,4-dichlorophenyl)carbamoyl-γ-aminopropyl]-9a-aza-9a-homoerithromycin A [Example 39] | >64 | >64 | 16 | 16 | 1 | ≦0.125 μg/ml | 64 | 32 | ≦0.125 μg/ml |
| 9-Deoxo-9-dihydro-9a-N-[N′-(β-cyanoethyl)-N′-(3,4,5-trimethoxyphenyl)carbamoyl-γ-aminopropyl]-9a-aza-9a-homoerithromycin A [Example 37] | 16 | 16 | 2 | 1 | 4 | ≦0.125 μg/ml | 8 | 47 | ≦0.125 μg/ml |
| 9-Deoxo-9-dihydro-9a-N-[N′-(β-cyanoethyl)-N′-(β-phenylethyl)thiocarbamoyl-γ-aminopropyl]-9a-aza-9a-homoerithromycin A [Example 34] | 32 | 16 | 2 | 1 | 1 | ≦0.125 μg/ml | 8 | 4 | ≦0.125 μg/ml |
| 9-Deoxo-9-dihydro-9a-N-[N′-(β-cyanoethyl)-N′-benzylcarbamoyl-γ-aminopropyl]-9a-aza-9a-homoerithromycin A [Example 29] | >64 | >64 | 32 | 4 | 2 | ≦0.125 μg/ml | 64 | 16 | ≦0.125 μg/ml |
| 9-Deoxo-9-dihydro-9a-N-[N′-(β-cyanoethyl)-N′-isopropylcarbamoyl-γ-aminopropyl]-9a-aza-9a-homorithromycin A [Example 27] | 16 | 32 | 32 | 0.5 | 4 | ≦0.125 μg/ml | 32 | 8 | ≦0.125 μg/ml |
| 9-Deoxo-9-dihydro-9a-N-{N′-(β-cyanoethyl)-N′-[1-(1-naphtyl)ethyl]carbamoyl-γ-aminopropyl}-9a-aza-9a-homoerithromycin A [Example 36] | 64 | 16 | 2 | 4 | 2 | ≦0.125 μg/ml | 16 | 8 | ≦0.125 μg/ml |
| CC[C@H]1OC(=O)[C@H](C)[C@@H](O[C@H]2C[C@@](C)(OC)[C@@H](O)[C@H](C)O2)[C@H](C)[C@@H](O[C@@H]2O[C@H](C)C[C@H](N(C)C)[C@H]2O)[C@](C)(O)C[C@@H](C)C(=O)[C@H](C)[C@@H](O)[C@]1(C)O [Er, erythromycin A, reference compound] | 32 | 1 | 2 |  |  |  | 8 | >64 | 0.25 µg/mL |
| CC[C@H]1OC(=O)[C@H](C)[C@@H](O[C@H]2C[C@@](C)(OC)[C@@H](O)[C@H](C)O2)[C@H](C)[C@@H](O[C@@H]2O[C@H](C)C[C@H](N(C)C)[C@H]2O)[C@](C)(O)C[C@@H](C)CN(CCCNC(=O)NC(C)C)[C@H](C)[C@@H](O)[C@]1(C)O [Example 1, 9-Deoxo-9-dihydro-9a-N-(N′-isopropylcarbainoyl-γ-aminopropyl)-9a-aza-9a-homoerithromycin A] | 16 | 32 | 32 | 0.5 | 2 | ≦0.125 μg/ml | 32 | 8 | ≦0.125 μg/ml |
| CC[C@H]1OC(=O)[C@H](C)[C@@H](O[C@H]2C[C@@](C)(OC)[C@@H](O)[C@H](C)O2)[C@H](C)[C@@H](O[C@@H]2O[C@H](C)C[C@H](N(C)C)[C@H]2O)[C@](C)(O)C[C@@H](C)CN(CCCNC(=O)Nc2cccc3ccccc23)[C@H](C)[C@@H](O)[C@]1(C)O [Example 2, 9-Deoxo-9-dihydro-9a-N-[N′-(1-naphtyl)carbamoyl-γ-aminopropyl]-9a-aza-9a-homoerithromycin A] | 8 | 4 | 1 | 0.25 | 0.5 | ≦0.125 μg/ml | 4 | 2 | ≦0.125 μg/ml |
| CC[C@H]1OC(=O)[C@H](C)[C@@H](O[C@H]2C[C@@](C)(OC)[C@@H](O)[C@H](C)O2)[C@H](C)[C@@H](O[C@@H]2O[C@H](C)C[C@H](N(C)C)[C@H]2O)[C@](C)(O)C[C@@H](C)CN(CCCNC(=O)NCc2ccccc2)[C@H](C)[C@@H](O)[C@]1(C)O [Example 3, 9-Deoxo-9-dihydro-9a-N-(N′-benzylcarbamoyl-γ-aminopropyl)-9a-aza-9a-homoerithromycin A] | 16 | 16 | 2 | 1 | 0.5 | ≦0.125 μg/ml | 8 | 4 | ≦0.125 μg/ml |
| CC[C@H]1OC(=O)[C@H](C)[C@@H](O[C@H]2C[C@@](C)(OC)[C@@H](O)[C@H](C)O2)[C@H](C)[C@@H](O[C@@H]2O[C@H](C)C[C@H](N(C)C)[C@H]2O)[C@](C)(O)C[C@@H](C)CN(CCCNC(=S)NCc2ccccc2)[C@H](C)[C@@H](O)[C@]1(C)O [Example 4, 9-Deoxo-9-dihydro-9a-N-(N′-benzylthiocarbamoyl-γ-aminopropyl)-9a-aza-9a-homoerithromycin A] | 16 | 8 | 2 | 1 | 2 | ≦0.125 μg/ml | 4 | 2 | ≦0.125 μg/ml |
| CC[C@H]1OC(=O)[C@H](C)[C@@H](O[C@H]2C[C@@](C)(OC)[C@@H](O)[C@H](C)O2)[C@H](C)[C@@H](O[C@@H]2O[C@H](C)C[C@H](N(C)C)[C@H]2O)[C@](C)(O)C[C@@H](C)CN(CCCNC(=S)Nc2cccc3ccccc23)[C@H](C)[C@@H](O)[C@]1(C)O [Example 5] | 8 | 4 | 2 | 2 | 2 | ≦0.125 μg/ml | 4 | 4 | ≦0.125 μg/ml |
| CC[C@H]1OC(=O)[C@H](C)[C@@H](O[C@H]2C[C@@](C)(OC)[C@@H](O)[C@H](C)O2)[C@H](C)[C@@H](O[C@@H]2O[C@H](C)C[C@H](N(C)C)[C@H]2O)[C@](C)(O)C[C@@H](C)CN(CCCNC(=O)Nc2ccccc2C(F)(F)F)[C@H](C)[C@@H](O)[C@]1(C)O [Example 6, 9-Deoxo-9-dihydro-9a-N-[N′-(2-trifluoromethyl)phenylcarbamoyl-γ-aminopropyl]-9a-aza-9a-homoerithromycin A] | 32 | 64 | 16 | 8 | 2 | ≦0.125 μg/ml | 32 | 8 | ≦0.125 μg/ml |
| CC[C@H]1OC(=O)[C@H](C)[C@@H](O[C@H]2C[C@@](C)(OC)[C@@H](O)[C@H](C)O2)[C@H](C)[C@@H](O[C@@H]2O[C@H](C)C[C@H](N(C)C)[C@H]2O)[C@](C)(O)C[C@@H](C)CN(CCCNC(=S)NCCCc2ccccc2)[C@H](C)[C@@H](O)[C@]1(C)O [Example 7, 9-Deoxo-9-dihydro-9a-N-[N′-(3-phenylpropyl)thiocarbamoyl-γ-aminopropyl]-9a-aza-9a-homoerithromycin A] | 16 | 16 | 2 | 1 | 1 | ≦0.125 μg/ml | 8 | 4 | ≦0.125 μg/ml |
| CC[C@H]1OC(=O)[C@H](C)[C@@H](O[C@H]2C[C@@](C)(OC)[C@@H](O)[C@H](C)O2)[C@H](C)[C@@H](O[C@@H]2O[C@H](C)C[C@H](N(C)C)[C@H]2O)[C@](C)(O)C[C@@H](C)CN(CCCNC(=O)NCCc2ccccc2)[C@H](C)[C@@H](O)[C@]1(C)O [Example 8, 9-Deoxo-9-dihydro-9a-N-[N′-(β-phenylethyl)carbamoyl-γ-aminopropyl]-9a-aza-9a-homoerithromycin A] | 32 | 16 | 2 | 1 | 1 | ≦0.125 μg/ml | 8 | 4 | ≦0.125 μg/ml |
